# Tests used:
# IFNγ = assay: Inhibitors and antagonists counteracting the GM-CSF-inhibiting actions of IFNγ in uterine epithelial cells (Example 3); type: cell-based, mouse; settings: added in combination with IFNγ; dose-responsive, 5 ng/ml greater effect than 0.5 ng/ml
# Method: Several inhibitors and antagonists of IFNγ were tested for their ability to counteract the GM-CSF-inhibiting actions of IFNγ in epithelial cells.
# Uterine Epithelial Cell Cultures. Uterine epithelial cells prepared by pancreatin-trypsin digest as previously described (Robertson et al., (1992) Biol. Reprod. 46:1069-1079) were pooled from 4-6 estrous adult C57B1/6×CBA F1 female mice and plated in 1 ml culture wells (Nunc, Roskilde, Germany) at 1-2×10^5 cells per ml in 500 μl of RPMI containing 10% FCS and streptomycin (RPMI-FCS). Penicillin was omitted from culture media except where specified. After 4 h incubation at 37° C. in 5% CO2 to allow cell adherence, a further 500 μl of cytokines or antibodies in RPMI-FCS, or RPMI-FCS alone, were added. Cytokine treatments included recombinant mouse interferon-γ (rmIFNγ; R&D Systems), recombinant human transforming growth factor β1 (rhTGFβ1, R&D Systems), rhTGFβ2 (R&D Systems), rhTGFβ3 (OSI Pharmaceuticals). Antibody treatments included goat anti-mouse IFNγ receptor 1 (αIFNγR; R&D Systems AF1026) and hamster anti-mouse IFNγ (αIFNγ; R&D Systems MAB4851). Culture supernatants were collected and replaced with fresh complete RPMI-FCS alone at 16 hours, then collected again 24 hours later, at which time adherent cells were quantified as previously described (Robertson et al., (1992) Biol. Reprod. 46:1069-1079). The GM-CSF content of 24 h supernatants was determined by GM-CSF bioassay or immunoassay. All treatments were performed in duplicate or triplicate.
# GM-CSF bioassay and immunoassay: Bioactive GM-CSF was assayed using the GM-CSF dependant cell line FD 5/12, essentially as previously described (Robertson et al., (1992) Biol. Reprod. 46:1069-1079). Cell proliferation was determined by the addition of 1 μCi of [^3H]-thymidine per well for the last 6 h of the assay. The minimal detectable amount of GM-CSF was […] The identity of the bioactivity in uterine epithelial cell cultures was confirmed using a goat polyclonal antibody to murine GM-CSF kindly provided by J. Schreurs (DNAX, Palo Alto, Calif.) as previously described (Robertson et al., (1992) Biol. Reprod. 46:1069-1079). GM-CSF immunoactivity was in some experiments measured by commercial mouse GM-CSF specific ELISA (R & D Systems) according to the manufacturer's instructions.
# [1] = test system: murine uterine epithelial cells; assay: Effect of rIFNγ and rTGFβ on GM-CSF production in cultured uterine epithelial cells (Example 2); type: cell-based, mouse; settings: rTGFβ 5 ng/ml; DMEM +penicillin; two experiments
# Method: Uterine Epithelial Cell Cultures. Uterine epithelial cells prepared as previously described (Robertson et al., Biol Reprod 46:1069-1079 (1992)) were pooled from 4-6 estrous C57B1/6 or C57B1/6×Balb/c F1 mice and plated in 1 ml culture wells (Nunc, Roskilde, Germany) at 1-2×10^5 cells per ml in 500 μl of Dulbecco's modified Eagles medium containing 10% FCS, […] streptomycin sulphate and […] benzyl penicillin (DMEM +penicillin). After 4 h incubation at 37° C. in 5% CO2 to allow cell adherence, a further 500 μl of DMEM +penicillin, or DMEM +penicillin plus recombinant mouse IFNγ (rIFNγ) and/or recombinant human TGFβ1 (rTGFβ), were added. In some experiments, penicillin-free DMEM (DMEM −penicillin) was used throughout. Culture supernatants were collected and replaced with fresh medium at 16 hours, then collected again 24 hours later, at which time GM-CSF content was determined and adherent cells were quantified as previously described (Robertson et al., Biol Reprod 46:1069-1079 (1992)). All treatments were performed in duplicate or triplicate. rTGFβ and rIFNγ were obtained from R&D Systems, UK.
# GM-CSF bioassay: GM-CSF was assayed using the GM-CSF dependant cell line FD 5/12, essentially as previously described (Robertson et al., Biol Reprod 46:1069-1079 (1992)). Cell proliferation was determined by pulsing with 1 μCi of [^3H]-thymidine per well for the last 6 h of the assay. The minimal detectable amount of GM-CSF was 20 pg/ml. The identity of the bioactivity in uterine epithelial cell cultures was confirmed using a goat polyclonal antibody to murine GM-CSF (DNAX, Palo Alto, Calif.) as previously described (Robertson et al., Biol Reprod 46:1069-1079 (1992)). GM-CSF production is expressed as ng GM-CSF/10^5 cells/24 h. Recombinant mouse GM-CSF was obtained from R&D Systems.
substance,measurement,setting,value
rhTGFβ1: recombinant human transforming growth factor β1 (R&D Systems),effect of TGFβ isoform on the inhibitory effect of IFNγ on GM-CSF synthesis,IFNγ,counteracted the inhibitory effect
same,increase in GM-CSF production,[1],approximately 6 fold
